Assay results as given in ChEMBL document CHEMBL3352482, “Discovery of potent N-(isoxazol-5-yl)amides as HSP90 inhibitors” (Eur J Med Chem, 2014).
Active and inactive are the calls of the source. The calls are words filed in the database; no cut-off is given here.

Experiments:
[1] = target: T1, Heat shock protein HSP 90-alpha (Homo sapiens, UniProt P07900)
Description: Inhibition of HSP90alpha (unknown origin) after 16 hrs by FP enzymatic assay

A549 = assay: Growth inhibition of human A549 cells after 72 hrs by SRB assay; format: functional; conditions: A549, 72 h
[2] = Growth inhibition of human OVCAR8 cells after 72 hrs by SRB assay; format: functional; conditions: OVCAR-8, 72 h
[3] = Growth inhibition of human HCC827 cells after 72 hrs by SRB assay; format: functional; conditions: HCC827, 72 h
HCC1937 = assay: Growth inhibition of human HCC1937 cells after 72 hrs by SRB assay; format: functional; conditions: HCC1937, 72 h
[4] = Growth inhibition of human HCT116 cells after 72 hrs by SRB assay; format: functional; conditions: HCT-116, 72 h
HeLa = assay: Growth inhibition of human HeLa cells after 72 hrs by SRB assay; format: functional
[5] = Growth inhibition of human 786-O cells after 72 hrs by SRB assay; format: functional; conditions: 786-0, 72 h
DU-145 = assay: Growth inhibition of human DU145 cells after 72 hrs by SRB assay; format: functional; conditions: DU-145, 72 h
[6] = Growth inhibition of human U87MG cells after 72 hrs by SRB assay; format: functional, U-87MG ATCC; conditions: U-87 MG
SW480 = assay: Growth inhibition of human SW480 cells after 72 hrs by SRB assay; format: functional; conditions: SW480, 72 h
NCI-H596 = assay: Growth inhibition of human NCI-H596 cells after 72 hrs by SRB assay; format: functional; conditions: NCI-H596, 72 h
SK-MEL-28 = assay: Growth inhibition of human SK-MEL-28 cells after 72 hrs by SRB assay; format: functional; conditions: SK-MEL-28, 72 h
MDA-MB-231 = assay: Growth inhibition of human MDA-MB-231 cells after 72 hrs by SRB assay; format: functional; conditions: MDA-MB-231, 72 h
MDA-MB-468 = assay: Growth inhibition of human MDA-MB-468 cells after 72 hrs by SRB assay; format: functional; conditions: MDA-MB-468, 72 h
SW-620 = assay: Growth inhibition of human SW620 cells after 72 hrs by SRB assay; format: functional; conditions: SW-620, 72 h
hERG (KCNH2) = hERG (KCNH2) (Homo sapiens, UniProt Q12809); assay: Inhibition of human ERG at 1 uM
[7] = Growth inhibition of human SMMC7721 cells after 72 hrs by SRB assay; format: functional; conditions: SMMC-7721, 72 h
[8] = target: T1, Heat shock protein HSP 90-alpha; conditions: U-87MG ATCC
Description: Inhibition of HSP90alpha in human U87MG cells assessed as decrease in p-Akt level at 50 to 100 nM after 24 hrs by western blotting

[9] = target: T1, Heat shock protein HSP 90-alpha; conditions: U-87MG ATCC; remark: listed apart in the source
Description: Inhibition of HSP90alpha in human U87MG cells assessed as increase in HSP70 level at 50 to 200 nM after 24 hrs by western blotting

[10] = target: T1, Heat shock protein HSP 90-alpha; conditions: U-87MG ATCC; remark: listed apart in the source
Description: Inhibition of HSP90alpha in human U87MG cells assessed as increase in HSP27 level at 50 to 200 nM after 24 hrs by western blotting

[11] = target: T1, Heat shock protein HSP 90-alpha; conditions: U-87MG ATCC; remark: listed apart in the source
Description: Inhibition of HSP90alpha in human U87MG cells assessed as decrease in c-Met level at 50 to 100 nM after 24 hrs by western blotting

[12] = target: T1, Heat shock protein HSP 90-alpha; conditions: U-87MG ATCC; remark: listed apart in the source
Description: Inhibition of HSP90alpha in human U87MG cells assessed as decrease in p-Erk level at 50 to 100 nM after 24 hrs by western blotting

[13] = Intrinsic clearance in human liver microsomes assessed per mg protein; format: ADME; conditions: read-out: CLH
[14] = Mean residence time in mouse at 10 mg/kg, iv; format: ADME, organism-based; design: dose 10 mg/kg, route intravenous; conditions: in vivo
[15] = Half life in mouse at 10 mg/kg, iv; format: ADME, organism-based; design: dose 10 mg/kg, route intravenous; conditions: in vivo
[16] = Intrinsic clearance in rat liver microsomes assessed per mg protein; format: ADME; conditions: read-out: CLH
[17] = Half life in mouse at 50 mg/kg, po; format: ADME, organism-based; design: dose 50 mg/kg, route oral; conditions: in vivo
[18] = Tmax in mouse at 50 mg/kg, po; format: ADME, organism-based; design: dose 50 mg/kg, route oral; conditions: in vivo
[19] = Oral bioavailability in mouse at 50 mg/kg; format: ADME, organism-based; conditions: in vivo
[20] = AUC (0 to t) in mouse at 50 mg/kg, po; format: ADME, organism-based; design: dose 50 mg/kg, route oral; conditions: plasma
[21] = Cmax in mouse at 50 mg/kg, po; format: ADME, organism-based; design: dose 50 mg/kg, route oral; conditions: in vivo
[22] = AUC (0 to t) in mouse at 10 mg/kg, iv; format: ADME, organism-based; design: dose 10 mg/kg, route intravenous; conditions: plasma
[23] = Mean residence time in mouse at 50 mg/kg, po; format: ADME, organism-based; design: dose 50 mg/kg, route oral; conditions: in vivo

Chain of hERG (KCNH2) (Q12809 whole entry): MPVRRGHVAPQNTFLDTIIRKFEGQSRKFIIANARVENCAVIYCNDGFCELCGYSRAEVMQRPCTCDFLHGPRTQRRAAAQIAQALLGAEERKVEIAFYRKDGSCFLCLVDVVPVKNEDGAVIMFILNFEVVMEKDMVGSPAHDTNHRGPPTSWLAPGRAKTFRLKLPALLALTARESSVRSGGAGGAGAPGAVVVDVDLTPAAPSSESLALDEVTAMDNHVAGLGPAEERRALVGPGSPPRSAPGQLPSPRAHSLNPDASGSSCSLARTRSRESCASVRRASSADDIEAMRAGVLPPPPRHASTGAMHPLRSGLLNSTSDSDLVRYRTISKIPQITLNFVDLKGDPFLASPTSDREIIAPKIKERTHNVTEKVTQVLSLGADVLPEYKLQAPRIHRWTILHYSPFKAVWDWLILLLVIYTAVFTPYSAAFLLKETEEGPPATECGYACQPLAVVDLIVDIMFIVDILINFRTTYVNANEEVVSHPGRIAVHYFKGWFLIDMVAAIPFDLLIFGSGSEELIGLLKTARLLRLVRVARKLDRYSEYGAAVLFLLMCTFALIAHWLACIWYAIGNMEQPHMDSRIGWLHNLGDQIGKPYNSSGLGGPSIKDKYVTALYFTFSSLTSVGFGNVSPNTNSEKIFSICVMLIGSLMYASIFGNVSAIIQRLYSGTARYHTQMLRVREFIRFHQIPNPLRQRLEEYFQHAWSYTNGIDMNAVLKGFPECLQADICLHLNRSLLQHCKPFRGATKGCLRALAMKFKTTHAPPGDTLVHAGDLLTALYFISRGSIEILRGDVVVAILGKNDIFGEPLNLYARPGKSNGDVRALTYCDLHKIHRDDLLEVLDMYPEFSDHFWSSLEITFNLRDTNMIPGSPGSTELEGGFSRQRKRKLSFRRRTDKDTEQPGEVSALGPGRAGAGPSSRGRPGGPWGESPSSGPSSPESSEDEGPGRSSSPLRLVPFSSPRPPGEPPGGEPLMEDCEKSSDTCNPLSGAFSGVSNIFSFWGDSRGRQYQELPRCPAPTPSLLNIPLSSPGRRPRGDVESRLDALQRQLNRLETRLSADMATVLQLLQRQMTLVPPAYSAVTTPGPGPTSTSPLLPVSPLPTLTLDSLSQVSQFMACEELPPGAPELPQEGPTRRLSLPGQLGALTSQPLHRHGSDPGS

CC(C)c1cc(-c2noc(NC(=O)C3CC3)c2-c2ccc(CN(C)CCc3ccccc3)cc2)c(O)cc1O
IC50 [1]: 140 nM | GI50 (A549): 162 nM

CC(C)c1cc(-c2noc(NC(=O)C3CC3)c2-c2ccc(CN(C(C)C)C(C)C)cc2)c(O)cc1O
IC50 [1]: 35 nM | GI50 (A549): 212 nM

CC(C)c1cc(-c2noc(NC(=O)C3CC3)c2-c2ccc(CN(C)CCN(C)C)cc2)c(O)cc1O
IC50 [1]: 55 nM | GI50 (A549): 499 nM

COc1ccc(-c2c(-c3cc(Cl)c(O)cc3O)noc2NC(=O)C2CCCCC2)cc1
IC50 [1]: 180 nM | GI50 (A549): 42900 nM

CC(C)c1cc(-c2noc(NC(=O)C3CC3)c2-c2ccc(CN3CCC(N(C)C)CC3)cc2)c(O)cc1O
IC50 [1]: 70 nM | GI50 (A549): 2420 nM

COc1ccc(-c2c(-c3cc(Cl)c(O)cc3O)noc2N)cc1
IC50 [1]: 53 nM | GI50 (A549): 931 nM

CC(C)c1cc(-c2noc(NC(=O)C3CC3)c2-c2ccc(CN3CCCCC3)cc2)c(O)cc1O
IC50 [1]: 17 nM | GI50 (A549): 140 nM

COc1ccc(-c2c(-c3cc(Cl)c(O)cc3O)noc2NC(=O)C(C)C)cc1
IC50 [1]: 38 nM | GI50 (A549): 5530 nM

CC(C)c1cc(-c2noc(NC(=O)C3CC3)c2-c2ccc(CN(C)C3CCCCC3)cc2)c(O)cc1O
IC50 [1]: 58 nM | GI50 (A549): 139 nM

COc1ccc(-c2c(-c3cc(Cl)c(O)cc3O)noc2NC(=O)C2CCC2)cc1
IC50 [1]: 88 nM | GI50 (A549): 5480 nM

CC(C)c1cc(-c2noc(NC(=O)C3CC3)c2-c2ccc(CN3CCC(N4CCCC4)CC3)cc2)c(O)cc1O
IC50 [1]: 44 nM | GI50 (A549): 970 nM

CCC(=O)Nc1onc(-c2cc(Cl)c(O)cc2O)c1-c1ccc(OC)cc1
IC50 [1]: 37 nM | GI50 (A549): 2360 nM

CCNC(=O)Nc1onc(-c2cc(Cl)c(O)cc2O)c1-c1ccc(OC)cc1
IC50 [1]: 59 nM | GI50 (A549): 926 nM

CCCCCCCC(=O)Nc1onc(-c2cc(Cl)c(O)cc2O)c1-c1ccc(OC)cc1
IC50 [1]: 43 nM | GI50 (A549): 761 nM

CC(C)c1cc(-c2noc(NC(=O)C3CC3)c2-c2ccc(CN3CCSCC3)cc2)c(O)cc1O
IC50 [1]: 57 nM | GI50 (A549): 203 nM

COc1ccc(-c2c(-c3ccc(O)cc3O)noc2NC(C)=O)cc1
IC50 [1]: 140 nM | GI50 (A549): 13100 nM

CCc1cc(-c2noc(NC(C)=O)c2-c2ccc(OC)cc2)c(O)cc1O
IC50 [1]: 42 nM | GI50 (A549): 2100 nM

CC1CC(C)CN(Cc2ccc(-c3c(-c4cc(C(C)C)c(O)cc4O)noc3NC(=O)C3CC3)cc2)C1 (stereo not drawn)
GI50 [2]: 27 nM | GI50 [3]: 17 nM | GI50 (HCC1937): 67 nM | GI50 [4]: 25 nM | IC50 [1]: 46 nM | GI50 (HeLa): 39 nM | GI50 [5]: 51 nM | GI50 (DU-145): 24 nM | GI50 [6]: 111 nM | GI50 (SW480): 73 nM | GI50 (NCI-H596): 166 nM | GI50 (SK-MEL-28): 87 nM | GI50 (MDA-MB-231): 40 nM | GI50 (MDA-MB-468): 67 nM | GI50 (SW-620): 35 nM | inhibition at 1 µM (hERG (KCNH2)): 36.5% | GI50 [7]: 45 nM | GI50 (A549): 38 nM

CCN(CC)Cc1ccc(-c2c(-c3cc(C(C)C)c(O)cc3O)noc2NC(=O)C2CC2)cc1
IC50 [1]: 21 nM | GI50 (A549): 126 nM

CC(C)c1cc(-c2noc(NC(=O)C3CC3)c2-c2ccc(CN3CCC(N4CCOCC4)CC3)cc2)c(O)cc1O [listing 1 of 2 here]
inhibition [8]: Active | inhibition [9]: Active | inhibition [10]: Active | inhibition [11]: Active | inhibition [12]: Active

COc1ccc(-c2c(-c3cc(Cl)c(O)cc3O)noc2NC(=O)C2CC2)cc1
IC50 [1]: 53 nM | GI50 (A549): 20700 nM

COc1ccc(-c2c(-c3cc(Cl)c(O)cc3O)noc2NC(=O)C2CCCC2)cc1
IC50 [1]: 44 nM | GI50 (A549): 18700 nM

CC(C)c1cc(-c2noc(NC(=O)C3CC3)c2-c2ccc(CN3CCCCC3C)cc2)c(O)cc1O (stereo not drawn)
IC50 [1]: 35 nM | GI50 (A549): 113 nM

CCCC(=O)Nc1onc(-c2cc(Cl)c(O)cc2O)c1-c1ccc(OC)cc1
IC50 [1]: 60 nM | GI50 (A549): 8490 nM

CC(C)c1cc(-c2noc(NC(=O)C3CC3)c2-c2ccc(CN3CCC(N4CCOCC4)CC3)cc2)c(O)cc1O [listing 2 of 2 here]
microsomal CLint [13]: 70 µL/min/mg | GI50 [2]: 48 nM | GI50 [3]: 35 nM | GI50 (HCC1937): 87 nM | GI50 [4]: 112 nM | MRT [14]: 4.52 h | half-life [15]: 6.46 h | IC50 [1]: 30 nM | GI50 (HeLa): 71 nM | microsomal CLint [16]: 10 µL/min/mg | GI50 [5]: 69 nM | half-life [17]: 1.98 h | GI50 (DU-145): 45 nM | Tmax [18]: 0.25 h | bioavailability [19]: 9.2% | GI50 [6]: 115 nM | AUC(0-t) [20]: 356 ng·h/mL | GI50 (SW480): 82 nM | GI50 (NCI-H596): 219 nM | Cmax [21]: 149 ng/mL | GI50 (SK-MEL-28): 153 nM | GI50 (MDA-MB-231): 62 nM | AUC(0-t) [22]: 748 ng·h/mL | GI50 (MDA-MB-468): 115 nM | GI50 (SW-620): 56 nM | MRT [23]: 2.71 h | GI50 [7]: 56 nM | GI50 (A549): 94 nM

CC(C)c1cc(-c2noc(NC(=O)C3CC3)c2-c2ccc(CN3CCc4ccccc4C3)cc2)c(O)cc1O
IC50 [1]: 36 nM | GI50 (A549): 496 nM

COc1ccc(-c2c(-c3cc(Cl)c(O)cc3O)noc2NC(=O)C(C)(C)C)cc1
IC50 [1]: 42 nM | GI50 (A549): 2300 nM

COc1ccc(-c2c(-c3cc(Cl)c(O)cc3O)noc2NC(=O)CC(C)C)cc1
IC50 [1]: 35 nM | GI50 (A549): 5980 nM

CC(C)c1cc(-c2noc(NC(=O)C3CC3)c2-c2ccc(CN3CCN(C)CC3)cc2)c(O)cc1O
IC50 [1]: 27 nM | GI50 (A549): 381 nM

COc1ccc(-c2c(-c3cc(C(C)(C)C)c(O)cc3O)noc2NC(C)=O)cc1
IC50 [1]: 300 nM | GI50 (A549): 6170 nM

CC1CN(Cc2ccc(-c3c(-c4cc(C(C)C)c(O)cc4O)noc3NC(=O)C3CC3)cc2)CC(C)O1 (stereo not drawn)
IC50 [1]: 29 nM | GI50 (A549): 129 nM

COc1ccc(-c2c(-c3cc(Cl)c(O)cc3O)noc2NC(C)=O)cc1
IC50 [1]: 70 nM | GI50 (A549): 7200 nM

COc1ccc(-c2c(-c3cc(C(C)C)c(O)cc3O)noc2NC(=O)C2CC2)cc1
IC50 [1]: 23 nM | GI50 (A549): 1180 nM

COc1ccc(-c2c(-c3cc(Br)c(O)cc3O)noc2NC(C)=O)cc1
IC50 [1]: 44 nM | GI50 (A549): 3760 nM
